Results: the supplement of paper PMC10307832

Legend:
Assay in all cases: relative viability (nuclei count vs DMSO), 5 days (fraction); higher = more cells survive
201T = system: 201T
Outline: (§1)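 Relative viability divides the nuclei count in treated wells by that in vehicle wells. Lung cancer cell lines were seeded in 1536-well plates, dosed by pin tool the next day, and fixed and stained after 5 days in one step with final 0.05% Triton X-100, 1% formaldehyde and 1 ug/ml Hoechst. Dosing was a single drug or a fixed anchor-drug dose plus five library-drug doses (not always all listed) in √10 steps, and values are medians of duplicate plates imaged at 4×.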

BEN = system: BEN
Outline: as §1

CAL-12T = system: CAL-12T
Outline: as §1

HCC-44 = system: HCC-44
Outline: as §1

HCC-827 = system: HCC-827
Outline: as §1

HOP-62 = system: HOP-62
Outline: as §1

LCLC-97TM1 = system: LCLC-97TM1
Outline: as §1

LXF-289 = system: LXF-289
Outline: as §1

NCI-H1395 = system: NCI-H1395
Outline: as §1

NCI-H1437 = system: NCI-H1437
Outline: as §1

NCI-H1650 = system: NCI-H1650
Outline: as §1

NCI-H1793 = system: NCI-H1793
Outline: as §1

NCI-H1944 = system: NCI-H1944
Outline: as §1

NCI-H2087 = system: NCI-H2087
Outline: as §1

NCI-H2228 = system: NCI-H2228
Outline: as §1

NCI-H2405 = system: NCI-H2405
Outline: as §1

NCI-H3122 = system: NCI-H3122
Outline: as §1

NCI-H322M = system: NCI-H322M
Outline: as §1

NCI-H647 = system: NCI-H647
Outline: as §1

NCI-H727 = system: NCI-H727
Outline: as §1

RERF-LC-KJ = system: RERF-LC-KJ
Outline: as §1

SK-LU-1 = system: SK-LU-1
Outline: as §1

## Oc1nc(-c2ccc(C(F)(F)F)cc2)nc2c1CSCC2 [XAV939] + CS(=O)(=O)CCNCc1ccc(-c2ccc3ncnc(Nc4ccc(OCc5cccc(F)c5)c(Cl)c4)c3c2)o1 [Lapatinib] (partner 2 µM)
201T; first compound 0.08 µM
  relative viability: 1.08
201T; first compound 0.253 µM
  relative viability: 0.866
201T; first compound 0.8 µM
  relative viability: 0.948
201T; first compound 2.53 µM
  relative viability: 0.896
BEN; first compound 0.08 µM
  relative viability: 0.656
BEN; first compound 0.253 µM
  relative viability: 0.547
BEN; first compound 0.8 µM
  relative viability: 0.584
BEN; first compound 2.53 µM
  relative viability: 0.435
CAL-12T; first compound 0.08 µM
  relative viability: 0.729
CAL-12T; first compound 0.253 µM
  relative viability: 0.664
CAL-12T; first compound 0.8 µM
  relative viability: 0.525
CAL-12T; first compound 2.53 µM
  relative viability: 0.426
HCC-44; first compound 0.08 µM
  relative viability: 1.01
HCC-44; first compound 0.253 µM
  relative viability: 0.816
HCC-44; first compound 0.8 µM
  relative viability: 0.955
HCC-44; first compound 2.53 µM
  relative viability: 0.928
HCC-827; first compound 0.08 µM
  relative viability: 0.194
HCC-827; first compound 0.253 µM
  relative viability: 0.178
HCC-827; first compound 0.8 µM
  relative viability: 0.238
HCC-827; first compound 2.53 µM
  relative viability: 0.187
HOP-62; first compound 0.08 µM
  relative viability: 1.1
HOP-62; first compound 0.253 µM
  relative viability: 0.963
HOP-62; first compound 0.8 µM
  relative viability: 0.918
HOP-62; first compound 2.53 µM
  relative viability: 0.735
LCLC-97TM1; first compound 0.08 µM
  relative viability: 1.11
LCLC-97TM1; first compound 0.253 µM
  relative viability: 0.959
LCLC-97TM1; first compound 0.8 µM
  relative viability: 0.668
LCLC-97TM1; first compound 2.53 µM
  relative viability: 0.81
LXF-289; first compound 0.08 µM
  relative viability: 0.898
LXF-289; first compound 0.253 µM
  relative viability: 0.826
LXF-289; first compound 0.8 µM
  relative viability: 0.897
LXF-289; first compound 2.53 µM
  relative viability: 0.919
NCI-H1395; first compound 0.08 µM
  relative viability: 0.976
NCI-H1395; first compound 0.253 µM
  relative viability: 0.919
NCI-H1395; first compound 0.8 µM
  relative viability: 0.985
NCI-H1395; first compound 2.53 µM
  relative viability: 1.01
NCI-H1437; first compound 0.08 µM
  relative viability: 0.938
NCI-H1437; first compound 0.253 µM
  relative viability: 0.709
NCI-H1437; first compound 0.8 µM
  relative viability: 0.772
NCI-H1437; first compound 2.53 µM
  relative viability: 0.639
NCI-H1650; first compound 0.08 µM
  relative viability: 0.762
NCI-H1650; first compound 0.253 µM
  relative viability: 0.726
NCI-H1650; first compound 0.8 µM
  relative viability: 0.836
NCI-H1650; first compound 2.53 µM
  relative viability: 0.454
NCI-H1793; first compound 0.08 µM
  relative viability: 0.892
NCI-H1793; first compound 0.253 µM
  relative viability: 0.602
NCI-H1793; first compound 0.8 µM
  relative viability: 0.714
NCI-H1793; first compound 2.53 µM
  relative viability: 0.877
NCI-H1944; first compound 0.08 µM
  relative viability: 1.16
NCI-H1944; first compound 0.253 µM
  relative viability: 0.865
NCI-H1944; first compound 0.8 µM
  relative viability: 0.834
NCI-H1944; first compound 2.53 µM
  relative viability: 0.679
NCI-H2087; first compound 0.08 µM
  relative viability: 1.12
NCI-H2087; first compound 0.253 µM
  relative viability: 1.06
NCI-H2087; first compound 0.8 µM
  relative viability: 1.08
NCI-H2087; first compound 2.53 µM
  relative viability: 0.89
NCI-H2228; first compound 0.08 µM
  relative viability: 1.03
NCI-H2228; first compound 0.253 µM
  relative viability: 0.922
NCI-H2228; first compound 0.8 µM
  relative viability: 0.848
NCI-H2228; first compound 2.53 µM
  relative viability: 0.928
NCI-H2405; first compound 0.08 µM
  relative viability: 1.25
NCI-H2405; first compound 0.253 µM
  relative viability: 1.02
NCI-H2405; first compound 0.8 µM
  relative viability: 0.972
NCI-H2405; first compound 2.53 µM
  relative viability: 1.1
NCI-H3122; first compound 0.08 µM
  relative viability: 1.01
NCI-H3122; first compound 0.253 µM
  relative viability: 0.95
NCI-H3122; first compound 0.8 µM
  relative viability: 1.01
NCI-H3122; first compound 2.53 µM
  relative viability: 1.01
NCI-H322M; first compound 0.08 µM
  relative viability: 0.602
NCI-H322M; first compound 0.253 µM
  relative viability: 0.57
NCI-H322M; first compound 0.8 µM
  relative viability: 0.599
NCI-H322M; first compound 2.53 µM
  relative viability: 0.426
NCI-H647; first compound 0.08 µM
  relative viability: 0.91
NCI-H647; first compound 0.253 µM
  relative viability: 0.854
NCI-H647; first compound 0.8 µM
  relative viability: 0.987
NCI-H647; first compound 2.53 µM
  relative viability: 0.921
NCI-H727; first compound 0.08 µM
  relative viability: 1.14
NCI-H727; first compound 0.253 µM
  relative viability: 0.589
NCI-H727; first compound 0.8 µM
  relative viability: 0.759
NCI-H727; first compound 2.53 µM
  relative viability: 0.877
RERF-LC-KJ; first compound 0.08 µM
  relative viability: 0.833
RERF-LC-KJ; first compound 0.253 µM
  relative viability: 0.702
RERF-LC-KJ; first compound 0.8 µM
  relative viability: 0.672
RERF-LC-KJ; first compound 2.53 µM
  relative viability: 0.609
SK-LU-1; first compound 0.08 µM
  relative viability: 0.858
SK-LU-1; first compound 0.253 µM
  relative viability: 0.845
SK-LU-1; first compound 0.8 µM
  relative viability: 0.863
SK-LU-1; first compound 2.53 µM
  relative viability: 0.906
